In patent publication US7012088B2, “Indolone oxazolidinones and derivatives thereof” (Pharmacia & Upjohn Company, priority 2003, dated 2006):
Values after ≈ are worked out from the molar mass of the structure shown.

Columns and labels:
[1] = system: S. pneumoniae SPNE 9912; assay: MIC by standard agar dilution method, S. pneumoniae; format: cell-based; conditions: Streptococcus pneumoniae, SPNE9912, Mueller Hinton agar, overnight at 35° C.
Source text: (§1) The oxazolidinone antibacterial agents of this invention have useful activity against a variety of organisms. The in vitro activity of compounds of this invention can be assessed by standard testing procedures such as the determination of minimum inhibitory concentration (MIC) by agar dilution as described in “Approved Standard. Methods for Dilution Antimicrobial Susceptibility Tests for Bacteria That Grow Aerobically”, 3rd. ed., published 1993 by the National Committee for Clinical Laboratory Standards, Villanova, Pa., USA. The in vitro MICs of test compounds were determined by a standard agar dilution method. A stock drug solution of each analog was prepared in the preferred solvent, usually DMSO:H2O (1:3). Serial 2-fold dilutions of each sample are made using 1.0 ml aliquots of sterile distilled water. To each 1.0 ml aliquot of drug was added 9 ml of molten Mueller Hinton agar medium. The drug-supplemented agar was mixed, poured into 15×100 mm petri dishes, and allowed to solidify and dry prior to inoculation. Vials of each of the test organisms are maintained frozen in the vapor phase of a liquid nitrogen freezer. Test cultures are grown overnight at 35° C. on the medium appropriate for the organism. Colonies are harvested with a sterile swab, and cell suspensions are prepared in Trypticase Soy broth (TSB) to equal the turbidity of a 0.5 McFarland standard. A 1:20 dilution of each suspension was made in TSB. The plates containing the drug supplemented agar are inoculated with a 0.001 ml drop of the cell suspension using a Steers replicator, yielding approximately 10^4 to 10^5 cells per spot. The plates are incubated overnight at 35° C. Following incubation the Minimum Inhibitory Concentration (MIC μg/ml), the lowest concentration of drug that inhibits visible growth of the organism, was read and recorded.

[2] = system: S. aureus SAUR 9213; assay: MIC by standard agar dilution method, S. aureus; format: cell-based; conditions: Staphylococcus aureus, SAUR9213, Mueller Hinton agar, overnight at 35° C.
Source text: as §1

| Compound | melting point | MIC [1] | MIC [2] |
| --- | --- | --- | --- |
| CN1C(=O)C(F)(F)c2cc(N3C[C@H](C(N)=O)OC3=O)ccc21 [Example 2, (5R)-(−)-3-(3,3-difluoro-2,3-dihydro-1-methyl-2-oxo-1H-indol-5-yl)-2-oxo-5-oxazolidinecarboxamide] | 274 to 277 °C (dec.) | 1 to 2 µg/mL (≈ 3.21 to 6.43 µM) | 2 µg/mL (≈ 6.43 µM) |
| CCN1C(=O)C(F)(F)c2cc(N3C[C@H](C(N)=O)OC3=O)ccc21 [Example 3, (5R)-(−)-3-(3,3-difluoro-2,3-dihydro-1-ethyl-2-oxo-1H-indol-5-yl)-2-oxo-5-oxazolidinecarboxamide] | 201 to 203 °C | 4 µg/mL (≈ 12.3 µM) | 8 µg/mL (≈ 24.6 µM) |
| CCN1C(=O)C(F)(F)c2cc(N3C[C@H](C(=O)NC)OC3=O)ccc21 [Example 4, (5R)-(−)-3-(3,3-Difluoro-2,3-dihydro-1-ethyl-2-oxo-1H-indol-5-yl)-N-methyl-2-oxo-5-oxazolidinecarboxamide] | 211 to 213 °C | 4 µg/mL (≈ 11.8 µM) | 8 µg/mL (≈ 23.6 µM) |
| CC(=O)NC[C@H]1CN(c2ccc3c(c2)C(F)(F)C(=O)N3C)C(=O)O1 [Example 5, N-[[(5S)-(−)-3-(3,3-Difluoro-2,3-dihydro-1-methyl-2-oxo-1H-indol-5-yl)-2-oxo-5-oxazolidinyl]methyl]acetamide] | 125 to 127 °C | 1 µg/mL (≈ 2.95 µM) | 2 µg/mL (≈ 5.89 µM) |

More lines, in order of falling MIC [1], values ahead:

| melting point | MIC [1] | MIC [2] | Compound |
| --- | --- | --- | --- |
| 242.5 to 245 °C | 2 µg/mL (≈ 6.15 µM) | 2 µg/mL (≈ 6.15 µM) | CNC(=O)[C@H]1CN(c2ccc3c(c2)C(F)(F)C(=O)N3C)C(=O)O1 [Example 1, (5R)-(−)-3-(3,3-Difluoro-2,3-dihydro-1-methyl-2-oxo-1H-indol-5-yl)-N-methyl-2-oxo-5-oxazolidinecarboxamide] |
| 139 to 141 °C | 2 µg/mL (≈ 5.66 µM) | 8 µg/mL (≈ 22.6 µM) | CCN1C(=O)C(F)(F)c2cc(N3C[C@H](CNC(C)=O)OC3=O)ccc21 [Example 6, N-[[(5S)-(−)-3-(3,3-Difluoro-2,3-dihydro-1-ethyl-2-oxo-1H-indol-5-yl)-2-oxo-5-oxazolidinyl]methyl]acetamide] |
